Experimental data reported in patent publication US12186423B2, “Brightening booster technology and brightening ampule” (MARY KAY INC., priority 2020, dated 2025).
“And” between values parts separate entries of the source, which are not always exact repeats. Equal entries are not always repeated.

What was measured:
B16-F1 melanocytes [1] = format: cell-based; conditions: mouse
Experimental: (§1) The endpoint of these assays are a spectrophotometric measurement of melanin production and cellular viability. B16-F1 melanocytes were cultivated to subconfluence at 37° C. in 10% CO2 in T150 tissue culture flasks in standard DMEM growth medium supplemented with 10% fetal bovine serum (Mediatech) and 1% penicillin/streptomycin. Cells in one confluent T150 tissue culture flask were trypsinized and resuspended in DMEM, and 1% of the resuspended cells were seeded in 200 μl total volume DMEM in each well of a 96-well tissue culture plate. For phenol red-free media, 200 mM L-glutamine (20 ml/L) (Mediatech) was also added to the DMEM growth medium. Active ingredients were diluted to 1% in DMEM growth medium. Once cells reached about 20% confluence, cells were treated with any one of the active ingredients, combination of ingredients, or compositions having said combinations disclosed in the specification by replacing the DMEM growth media with 200 μl DMEM growth media containing diluted active ingredients. Cells were also treated with 1 mM kojic acid as a positive control. Cells were then incubated for 5-6 days at 37° C. in 10% CO2. Following incubation, melanin secretion was measured by absorbance of the whole plate at 405 nm (OD 405) (whole plate reading). […] Percent viability of the cell samples was calculated using the following formula: % Viability=(Mean OD 490 of Sample/Mean OD 490 of Control). […] Percent change in pigmentation of the cell samples was calculated using the following formula: % Change=% pigmentation of Sample−% pigmentation of Control.

B16-F1 melanocytes [2] = experiment: B16 pigmentation assay (melanin production, absorbance at 405 nm); format: cell-based, mouse; conditions: for OD 405 (single readings of triplicate): active ingredients diluted to 1% in DMEM, whole plate reading; for OD 405 (single readings of triplicate) / OD 405 AVG: kojic acid 1 mM, 5-6 days; for OD 405 AVG: average absorbance at 405 nm of triplicate, actives diluted to 1%; for % INHIBITION: vs untreated cells; for % INHIBITION / % Inhibition (change in pigmentation): negative value = less pigmentation; for Melanogenesis (OD 405, single readings of triplicate): alone and combined, kojic acid positive control; for Melanogenesis AVG (OD 405): average of triplicate; for % Inhibition (change in pigmentation): viability-corrected, vs untreated
Experimental: as §1, with “Melanogenesis is the process by which melanocytes produce melanin, a naturally produced pigment that imparts color to skin, hair, and eyes. Inhibiting melanogenesis is beneficial to prevent skin darkening and lighten dark spots associated with aging. […] The” for “The”, “Active ingredients were diluted to 1% in DMEM growth medium.” left out

[3] = second experiment, 2% niacinamide, 2% navy bean, 0.2% ferulic acid

| Structure (SMILES) | % Viability (B16-F1 melanocytes [1]) [%] | Viability AVG (OD 490) (B16-F1 melanocytes [1]) | effect on pigmentation / melanin secretion (in words) (B16-F1 melanocytes [2]; first experiment) | OD 405 (single readings of triplicate) (B16-F1 melanocytes [2]; first experiment) | OD 405 AVG (B16-F1 melanocytes [2]; first experiment) | % INHIBITION (B16-F1 melanocytes [2]; first experiment) [%] | inhibited pigmentation / melanin secretion (B16-F1 melanocytes [2]; second experiment, 2% navy bean, 0.2% ferulic acid, 2% niacinamide) [%] | Melanogenesis (OD 405, single readings of triplicate) (B16-F1 melanocytes [2]; [3]) | Melanogenesis AVG (OD 405) (B16-F1 melanocytes [2]; [3]) | % Inhibition (change in pigmentation) (B16-F1 melanocytes [2]; second experiment) [%] | OD 405 (single readings of triplicate) (B16-F1 melanocytes [2]; first experiment, listed as CONTROL) |
| --- | --- | --- | --- | --- | --- | --- | --- | --- | --- | --- | --- |
| COc1cc(/C=C/C(=O)O)ccc1O [Ferulic Acid (FA), Ferulic acid] | 98.4 | 1.692 | inhibited pigmentation to some degree | 0.367 and 0.384 and 0.391 | 0.381 | −48.858 | 48.03 | 0.367 and 0.384 and 0.391 | 0.381 | −48.03 |  |
| NC(=O)c1cccnc1 [Niacinamide (B3), Niacinamide] | 100 | 1.725 |  | 0.775 and 0.766 and 0.78 | 0.774 | 3.941 |  | 0.775 and 0.766 and 0.78 | 0.774 | 3.58 |  |
| O=c1cc(CO)occ1O [Kojic Acid, kojic acid] | 98.1 | 1.687 |  |  | 0.328 | −55.979 |  | 0.31 and 0.333 and 0.34 | 0.328 | −55.14 | 0.31 and 0.333 and 0.34 |
